Like-named read-outs stand apart in the source and are kept apart here.
How the values were obtained:
Tyk2 = target: T1, Tyk2 (Homo sapiens, UniProt P29597); assay: Assay 1: LanthaScreen biochemical JAK kinase assay, Tyk2; details: converted from pIC50 by Cheng-Prusoff; ATP at Km 10 μM; read-out: Tyk2 pKi (converted)
T1 construct: GST; purchased Life Technologies
Description: A panel of four LanthaScreen JAK biochemical assays (JAK1, 2, 3 and Tyk2) were carried in a common kinase reaction buffer (50 mM HEPES, pH 7.5, 0.01% Brij-35, 10 mM MgCl2, and 1 mM EGTA). Recombinant GST-tagged JAK enzymes and a GFP-tagged STAT1 peptide substrate were obtained from Life Technologies.
The serially diluted compound was pre-incubated with each of the four JAK enzymes and the substrate in white 384-well microplates (Corning) at ambient temperature for lh. ATP was subsequently added to initiate the kinase reactions in 10 μL total volume, with 1% DMSO. […] The plates were allowed to incubate at ambient temperature for lh before being read on the EnVision reader (Perkin Elmer). Emission ratio signals (520 nm/495 nm) were recorded and utilized to calculate the percent inhibition values based on DMSO and background controls.
For dose-response analysis, percent inhibition data were plotted vs. compound concentrations, and IC50 values were determined from a 4-parameter robust fit model with the Prism software (GraphPad Software). Results were expressed as pIC50 (negative logarithm of IC50) and subsequently converted to pK1 (negative logarithm of dissociation constant, Ki) using the Cheng-Prusoff equation.

[1] = tested on: IFNγ induced CXCL10 secretion in EpiAirway tissue cultures; assay: Assay 15: IFNγ induced CXCL10 in human 3D airway cultures; type: cell-based; details: 192 h, Day 8, average from 3 or 4 donors, read-out: % inhibition of IFNγ induced CXCL10 secretion (±STDV)
Description: EpiAirway tissue cultures were obtained from Mattek (AIR-100). Cultures were derived from asthmatic donors. In a cell culture insert, human derived tracheal/bronchial epithelial cells were grown and differentiated on a porous membrane support, allowing an air-liquid interface with warmed culture medium below the cells and a gaseous test atmosphere above. Tissues were cultured in maintenance media (Mattek, AIR-100-MM) in a 37° C., 5% CO2 humidified incubator. Four donors were tested. On Day 0, tissue cultures were treated with test compounds at 10 μM, 1 μM and/or 0.1 μM. Compounds were diluted in dimethyl sulfoxide (DMSO, Sigma) to a final concentration of 0.1%. DMSO at 0.1% was used as a vehicle control. Test compounds were incubated with cultures for 1 hour at 37° C., 5% CO2, followed by the addition of pre-warmed media containing IFNγ (R&D Systems) or IL-27 (R&D Systems) at a final concentration at 100 ng/ml. Tissue cultures were maintained for 8 days. Media was replaced every 2 days with fresh media containing compounds and IFNγ or IL-27. On Day 8, tissue cultures and supernatants were collected for analysis. […] Data is expressed as % Inhibition +/−standard deviation (±STDV). Percent inhibition was determined by compound inhibitory potency against IFNγ or IL-27 induced CXCL10 or CXCL9 secretion compared to vehicle treated cells. […]

[2] = Assay 12: Ocular pharmacokinetics in rabbit eyes; type: in vivo, New Zealand white rabbits; details: for half-life: New Zealand white, vitreous, intravitreal solution formulation, 200 μg/eye and 50 μg/eye
Description: The objective of this assay was to determine the pharmacokinetics of the compound 1 in rabbit ocular tissues.
The compound of the invention, 5-ethyl-2-fluoro-4-(3-(5-(1-methylpiperidin-4-yl)-4,5,6,7-tetrahydro-1H-imidazo[4,5-c]pyridin-2-yl)-1H-indazol-6-yl)phenol (1) was dissolved in either 10% 2-hydroxypropyl-β-cyclodextrin to attain a target concentration of 4 mg/mL or in purified water to attain a target concentration of 1 mg/mL . Bilateral intravitreal injection (50 μL/eye) of the solution of test compound was administered to New Zealand white rabbits in two dose groups, 200 μg/eye and 50 μg/eye, respectively, for the cyclodextrin and water vehicle formulations, respectively. The test compound concentration was measured in ocular tissues: vitreous, aqueous, retina/choroid and iris-ciliary body at pre-determined time points post injection (30 min, 4 h, 1 d, 3 d, 7 d, 14 d). Two rabbits (four eyes) were dosed for each time point.
A suspension formulation was prepared by combining crystalline compound 1 of Example 2 with 0.5% hydroxypropyl methylcellulose (HPMC E5)+0.02% Tween 80 to attain a target concentration of 10 mg/mL. Bilateral intravitreal injection (50 μL/eye) of the suspension of test compound was administered to New Zealand white rabbits (500 μg/eye). The test compound concentration was measured in ocular tissues as in the […] at 30 min, 2 wks, 4 wks, 6 wks, and 8 wks post injection. […] The behavior is consistent with the solubility of compound 1 in the vehicle and the ocular pharmacokinetic behavior in the solution formulation. The drug concentration in plasma was measured and found to be at least 3 orders of magnitude lower than the concentration in vitreous tissue.

T1 sequence (P29597 whole entry): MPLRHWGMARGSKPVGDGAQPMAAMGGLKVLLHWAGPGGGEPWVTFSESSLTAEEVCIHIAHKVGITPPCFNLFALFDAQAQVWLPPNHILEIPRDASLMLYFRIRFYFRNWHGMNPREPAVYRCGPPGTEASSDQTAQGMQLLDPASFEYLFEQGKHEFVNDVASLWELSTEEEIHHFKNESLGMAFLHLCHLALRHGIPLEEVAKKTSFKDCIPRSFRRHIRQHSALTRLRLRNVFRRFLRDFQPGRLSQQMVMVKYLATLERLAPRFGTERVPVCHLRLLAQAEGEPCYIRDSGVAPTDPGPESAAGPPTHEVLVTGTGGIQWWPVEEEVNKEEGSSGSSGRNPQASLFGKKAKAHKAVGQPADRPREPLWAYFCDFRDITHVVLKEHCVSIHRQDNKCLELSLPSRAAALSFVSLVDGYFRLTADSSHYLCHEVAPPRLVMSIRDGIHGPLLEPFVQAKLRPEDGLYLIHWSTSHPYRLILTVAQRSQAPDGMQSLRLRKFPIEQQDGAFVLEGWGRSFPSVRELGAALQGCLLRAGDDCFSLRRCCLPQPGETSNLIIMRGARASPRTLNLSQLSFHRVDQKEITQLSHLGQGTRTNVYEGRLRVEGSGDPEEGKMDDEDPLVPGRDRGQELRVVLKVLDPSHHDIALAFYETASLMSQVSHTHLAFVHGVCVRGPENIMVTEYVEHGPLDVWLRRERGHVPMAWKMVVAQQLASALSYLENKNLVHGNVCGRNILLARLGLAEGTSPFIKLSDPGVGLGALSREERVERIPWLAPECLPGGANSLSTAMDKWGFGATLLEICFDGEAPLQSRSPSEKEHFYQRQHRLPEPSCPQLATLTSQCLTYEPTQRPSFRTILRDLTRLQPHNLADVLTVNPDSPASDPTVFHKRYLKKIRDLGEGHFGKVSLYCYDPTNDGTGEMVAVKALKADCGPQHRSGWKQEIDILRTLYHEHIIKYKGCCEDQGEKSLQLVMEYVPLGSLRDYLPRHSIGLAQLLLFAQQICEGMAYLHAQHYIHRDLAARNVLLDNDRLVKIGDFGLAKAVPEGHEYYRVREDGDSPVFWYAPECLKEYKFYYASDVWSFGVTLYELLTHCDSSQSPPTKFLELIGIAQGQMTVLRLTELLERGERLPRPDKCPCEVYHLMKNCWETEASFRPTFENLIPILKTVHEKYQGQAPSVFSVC

## CCc1cc(O)c(F)cc1-c1ccc2c(-c3nc4c([nH]3)CCN(C3CCN(C)CC3)C4)n[nH]c2c1 [Compound 1, 5-ethyl-2-fluoro-4-(3-(5-(1-methylpiperidin-4-yl)-4,5,6,7-tetrahydro-1H-imidazo[4,5-c]pyridin-2-yl)-1H-indazol-6-yl)phenol]
Tyk2
  Ki: 158 pM
[1]; at 0.1 μM
  inhibition at 0.1 µM: 17%
[1]; at 10 μM
  inhibition at 10 µM: 99%
[2]; read-out: half-life of initial decrease in concentration in vitreous tissue (converted)
  half-life: ~12 h
[2]; read-out: terminal half-life in vitreous tissue (converted)
  half-life: ~86.4 h
[2]; intravitreal suspension of crystalline compound 1 of Example 2, 500 μg/eye, 30 min to 6 weeks
  clearance rate (linear decrease in drug concentration in the vitreous): approximately 3 μg/mL/day

Source: US10251874B2, “Crystalline forms of a JAK inhibitor compound” (THERAVANCE BIOPHARMA R&D IP, LLC, priority 2017, dated 2019)
